{"source": "ChEMBL document CHEMBL1201862", "about": "“PubChem BioAssay data set” (2004)", "key": {"Streptokinase A": {"molecular_target": "T1, Streptokinase A (Streptococcus pyogenes serotype M1, UniProt P10520)", "T1 sequence (P10520 whole entry)": "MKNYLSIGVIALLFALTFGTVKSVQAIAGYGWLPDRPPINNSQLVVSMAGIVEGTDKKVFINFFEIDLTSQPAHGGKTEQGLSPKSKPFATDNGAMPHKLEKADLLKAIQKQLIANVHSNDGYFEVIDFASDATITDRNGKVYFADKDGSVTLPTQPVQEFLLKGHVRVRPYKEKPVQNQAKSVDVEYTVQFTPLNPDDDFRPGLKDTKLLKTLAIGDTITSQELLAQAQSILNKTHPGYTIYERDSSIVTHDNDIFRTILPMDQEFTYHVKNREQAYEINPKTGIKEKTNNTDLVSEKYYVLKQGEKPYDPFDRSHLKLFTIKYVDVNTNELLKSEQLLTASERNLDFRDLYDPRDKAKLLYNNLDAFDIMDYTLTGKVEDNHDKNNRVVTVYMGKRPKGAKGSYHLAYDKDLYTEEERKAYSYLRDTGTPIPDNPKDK", "assay": "S. pyogenes streptokinase expression inhibitors, potency, dose response, plasminogen activation absorbance, OD405 (AID 1914);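 also: secreted streptokinase activity via plasminogen activation per viability signal from cell pellet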", "assay_type": "functional, Streptococcus pyogenes M1 GAS"}, "[1]": {"system": "Streptococcus sp. 'group A'", "assay": "growth inhibition of control SK(-) GAS strain, dose response, counter-screen for streptokinase expression inhibitor project, luminescence, kanamycin, BacTiterGlo, confirmation (AID 1900)", "assay_type": "functional, organism-based"}, "[2]": {"molecular_target": "Disintegrin and metalloproteinase domain-containing protein 17 (Homo sapiens, UniProt P78536)", "sequence (P78536 whole entry, the tested form may be a part)": "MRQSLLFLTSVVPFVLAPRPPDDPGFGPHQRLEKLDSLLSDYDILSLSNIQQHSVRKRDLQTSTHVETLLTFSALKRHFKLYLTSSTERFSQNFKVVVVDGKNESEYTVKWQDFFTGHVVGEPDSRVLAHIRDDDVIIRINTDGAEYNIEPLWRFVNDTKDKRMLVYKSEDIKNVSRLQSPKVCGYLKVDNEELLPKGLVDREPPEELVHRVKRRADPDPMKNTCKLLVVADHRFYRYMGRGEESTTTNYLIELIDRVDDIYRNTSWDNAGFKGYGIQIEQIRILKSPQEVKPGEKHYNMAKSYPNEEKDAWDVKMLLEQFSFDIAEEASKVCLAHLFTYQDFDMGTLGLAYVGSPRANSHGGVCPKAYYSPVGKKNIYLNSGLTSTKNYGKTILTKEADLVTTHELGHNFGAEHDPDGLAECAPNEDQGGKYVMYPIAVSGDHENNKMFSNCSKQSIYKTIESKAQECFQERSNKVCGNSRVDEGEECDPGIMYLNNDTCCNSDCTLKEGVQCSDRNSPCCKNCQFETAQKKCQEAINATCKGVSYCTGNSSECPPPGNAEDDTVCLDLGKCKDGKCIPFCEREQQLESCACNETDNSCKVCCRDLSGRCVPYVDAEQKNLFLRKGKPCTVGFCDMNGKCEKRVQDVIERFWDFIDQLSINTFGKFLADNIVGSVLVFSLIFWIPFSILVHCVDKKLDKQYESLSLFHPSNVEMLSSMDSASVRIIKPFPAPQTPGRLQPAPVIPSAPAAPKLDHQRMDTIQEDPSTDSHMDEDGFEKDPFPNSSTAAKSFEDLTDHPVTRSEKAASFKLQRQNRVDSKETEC", "assay": "ADAM17 protease inhibitors, dose response, counter-screen for ADAM10 exosite inhibitor project, biochemical, quenched FRET substrate (AID 743253)"}, "Streptococcus": {"system": "Streptococcus", "assay": "Group A Streptococcus viability loss, dose response, counter-screen for streptokinase expression inhibitor project, luminescence, BacTiterGlo (AID 1915);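 also: potency for reduction of bacterial viability or growth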", "assay_type": "functional, organism-based"}, "[3]": {"molecular_target": "Endoplasmic reticulum aminopeptidase 1 (Homo sapiens, UniProt Q9NZ08)", "sequence (Q9NZ08 whole entry)": "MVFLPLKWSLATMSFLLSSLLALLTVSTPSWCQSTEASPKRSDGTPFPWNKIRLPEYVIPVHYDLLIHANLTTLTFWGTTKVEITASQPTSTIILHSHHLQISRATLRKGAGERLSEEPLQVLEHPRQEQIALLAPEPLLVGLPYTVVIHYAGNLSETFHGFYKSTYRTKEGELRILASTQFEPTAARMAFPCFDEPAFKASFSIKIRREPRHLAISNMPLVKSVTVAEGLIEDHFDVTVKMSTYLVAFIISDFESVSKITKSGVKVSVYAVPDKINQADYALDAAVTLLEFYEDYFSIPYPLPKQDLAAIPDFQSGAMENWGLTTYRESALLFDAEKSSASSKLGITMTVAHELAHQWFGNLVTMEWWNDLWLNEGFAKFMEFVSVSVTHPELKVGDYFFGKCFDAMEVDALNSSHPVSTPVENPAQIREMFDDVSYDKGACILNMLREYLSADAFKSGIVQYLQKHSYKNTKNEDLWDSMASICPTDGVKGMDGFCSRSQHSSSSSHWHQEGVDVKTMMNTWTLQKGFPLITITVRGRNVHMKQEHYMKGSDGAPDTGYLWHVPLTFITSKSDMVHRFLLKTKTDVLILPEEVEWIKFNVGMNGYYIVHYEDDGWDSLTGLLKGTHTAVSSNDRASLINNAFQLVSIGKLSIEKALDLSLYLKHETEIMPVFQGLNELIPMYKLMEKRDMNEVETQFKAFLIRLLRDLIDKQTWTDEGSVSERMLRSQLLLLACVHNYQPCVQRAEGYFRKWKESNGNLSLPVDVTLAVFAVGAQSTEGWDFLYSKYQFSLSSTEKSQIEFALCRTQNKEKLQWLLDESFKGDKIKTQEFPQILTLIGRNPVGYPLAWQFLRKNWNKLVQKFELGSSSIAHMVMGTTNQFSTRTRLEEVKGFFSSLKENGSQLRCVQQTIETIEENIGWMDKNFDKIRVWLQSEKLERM", "assay": "ERAP1 aminopeptidase inhibitors, dose response, biochemical, cherry-pick, set 2, plate reader (AID 743314)"}, "Large T antigen": {"molecular_target": "Large T antigen (Simian virus 40, UniProt P03070)", "sequence (P03070 whole entry)": "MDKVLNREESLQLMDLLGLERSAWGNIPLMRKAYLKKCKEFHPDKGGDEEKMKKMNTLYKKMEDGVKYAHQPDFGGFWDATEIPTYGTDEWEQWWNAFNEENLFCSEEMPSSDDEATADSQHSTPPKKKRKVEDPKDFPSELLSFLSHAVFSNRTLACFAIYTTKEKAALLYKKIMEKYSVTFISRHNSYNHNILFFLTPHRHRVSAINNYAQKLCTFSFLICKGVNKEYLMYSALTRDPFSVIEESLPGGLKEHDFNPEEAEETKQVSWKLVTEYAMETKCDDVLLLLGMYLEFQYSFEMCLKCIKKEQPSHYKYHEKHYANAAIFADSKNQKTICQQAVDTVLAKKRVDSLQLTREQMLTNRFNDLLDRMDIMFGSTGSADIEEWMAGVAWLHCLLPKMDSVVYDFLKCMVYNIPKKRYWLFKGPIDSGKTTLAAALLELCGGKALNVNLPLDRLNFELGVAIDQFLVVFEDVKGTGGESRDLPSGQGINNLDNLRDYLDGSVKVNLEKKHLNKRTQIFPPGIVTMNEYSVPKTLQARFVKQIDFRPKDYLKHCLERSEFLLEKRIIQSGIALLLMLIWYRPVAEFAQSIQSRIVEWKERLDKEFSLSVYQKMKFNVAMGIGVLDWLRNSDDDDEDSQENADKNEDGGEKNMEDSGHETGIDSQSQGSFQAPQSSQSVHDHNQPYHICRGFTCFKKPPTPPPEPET", "assay_type": "functional, Betapolyomavirus macacae"}, "[4]": {"molecular_target": "T2, High affinity choline transporter 1 (Homo sapiens, UniProt Q9GZV3)", "T2 sequence (Q9GZV3 whole entry)": "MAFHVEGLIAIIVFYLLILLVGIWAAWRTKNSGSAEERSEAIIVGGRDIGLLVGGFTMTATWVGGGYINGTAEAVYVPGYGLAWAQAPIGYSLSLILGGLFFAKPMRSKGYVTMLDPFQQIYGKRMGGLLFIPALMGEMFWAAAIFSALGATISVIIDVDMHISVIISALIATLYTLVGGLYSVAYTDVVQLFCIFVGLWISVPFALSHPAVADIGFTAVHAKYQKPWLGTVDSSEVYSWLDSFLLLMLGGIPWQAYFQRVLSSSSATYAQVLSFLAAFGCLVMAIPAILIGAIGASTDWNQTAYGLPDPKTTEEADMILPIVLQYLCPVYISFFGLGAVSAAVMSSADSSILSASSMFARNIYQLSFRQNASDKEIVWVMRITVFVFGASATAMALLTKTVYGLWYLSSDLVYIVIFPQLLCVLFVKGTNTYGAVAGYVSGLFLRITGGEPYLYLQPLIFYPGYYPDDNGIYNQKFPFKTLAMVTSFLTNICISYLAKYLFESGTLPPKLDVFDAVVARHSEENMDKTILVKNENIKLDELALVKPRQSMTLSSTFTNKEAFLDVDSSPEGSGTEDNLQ", "assay": "CHT inhibitors, dose response, cell-based, 5-point CRC, membrane potential dye (AID 504840)", "assay_type": "functional"}, "HEK293 [5]": {"system": "HEK293", "assay": "cells", "assay_type": "functional, cell-based", "conditions": "Homo sapiens"}, "[6]": {"molecular_target": "Nucleotide-binding oligomerization domain-containing protein 2 (Homo sapiens, UniProt Q9HC29)", "sequence (Q9HC29 whole entry, the tested form may be a part)": "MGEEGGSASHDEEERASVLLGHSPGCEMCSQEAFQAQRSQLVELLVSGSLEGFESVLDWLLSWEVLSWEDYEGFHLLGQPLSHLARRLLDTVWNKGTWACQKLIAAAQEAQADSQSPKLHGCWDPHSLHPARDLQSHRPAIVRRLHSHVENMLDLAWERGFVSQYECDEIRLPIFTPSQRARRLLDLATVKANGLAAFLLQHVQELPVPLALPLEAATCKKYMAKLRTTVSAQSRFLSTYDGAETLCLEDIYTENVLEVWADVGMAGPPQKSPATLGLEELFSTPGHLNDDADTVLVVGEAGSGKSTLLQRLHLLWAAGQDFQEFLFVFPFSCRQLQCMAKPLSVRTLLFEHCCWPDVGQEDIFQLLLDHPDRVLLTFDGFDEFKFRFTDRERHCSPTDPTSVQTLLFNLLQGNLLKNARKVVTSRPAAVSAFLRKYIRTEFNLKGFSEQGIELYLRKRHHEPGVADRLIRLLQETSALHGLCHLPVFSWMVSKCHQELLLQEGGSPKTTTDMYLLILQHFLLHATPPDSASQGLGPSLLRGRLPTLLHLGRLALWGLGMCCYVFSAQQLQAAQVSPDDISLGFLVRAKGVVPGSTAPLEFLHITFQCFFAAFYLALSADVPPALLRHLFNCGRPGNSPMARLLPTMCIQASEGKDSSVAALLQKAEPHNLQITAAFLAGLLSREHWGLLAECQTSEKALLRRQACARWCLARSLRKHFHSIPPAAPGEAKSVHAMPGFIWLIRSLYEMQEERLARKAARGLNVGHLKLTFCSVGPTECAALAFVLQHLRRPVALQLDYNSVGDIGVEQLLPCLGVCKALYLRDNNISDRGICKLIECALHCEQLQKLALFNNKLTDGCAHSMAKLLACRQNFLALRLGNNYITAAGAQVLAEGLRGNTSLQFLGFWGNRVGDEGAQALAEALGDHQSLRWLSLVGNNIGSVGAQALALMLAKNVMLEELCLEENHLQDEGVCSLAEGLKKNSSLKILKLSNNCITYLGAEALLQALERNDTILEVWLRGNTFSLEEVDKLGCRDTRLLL", "assay": "NOD2 signaling inhibitors, cell-based, luminescence, uHTS, HEK293 (AID 1566)", "assay_type": "functional"}, "[7]": {"assay": "HepG2 cell cytotoxicity, dose response, cytotoxicity control, ATP luminescence, cherry-pick, activator set 2 (AID 1053143)", "assay_type": "functional, cell-based"}, "[8]": {"molecular_target": "T3, Sentrin-specific protease 7 (Homo sapiens, UniProt Q9BQF6)", "T3 sequence (Q9BQF6 whole entry)": "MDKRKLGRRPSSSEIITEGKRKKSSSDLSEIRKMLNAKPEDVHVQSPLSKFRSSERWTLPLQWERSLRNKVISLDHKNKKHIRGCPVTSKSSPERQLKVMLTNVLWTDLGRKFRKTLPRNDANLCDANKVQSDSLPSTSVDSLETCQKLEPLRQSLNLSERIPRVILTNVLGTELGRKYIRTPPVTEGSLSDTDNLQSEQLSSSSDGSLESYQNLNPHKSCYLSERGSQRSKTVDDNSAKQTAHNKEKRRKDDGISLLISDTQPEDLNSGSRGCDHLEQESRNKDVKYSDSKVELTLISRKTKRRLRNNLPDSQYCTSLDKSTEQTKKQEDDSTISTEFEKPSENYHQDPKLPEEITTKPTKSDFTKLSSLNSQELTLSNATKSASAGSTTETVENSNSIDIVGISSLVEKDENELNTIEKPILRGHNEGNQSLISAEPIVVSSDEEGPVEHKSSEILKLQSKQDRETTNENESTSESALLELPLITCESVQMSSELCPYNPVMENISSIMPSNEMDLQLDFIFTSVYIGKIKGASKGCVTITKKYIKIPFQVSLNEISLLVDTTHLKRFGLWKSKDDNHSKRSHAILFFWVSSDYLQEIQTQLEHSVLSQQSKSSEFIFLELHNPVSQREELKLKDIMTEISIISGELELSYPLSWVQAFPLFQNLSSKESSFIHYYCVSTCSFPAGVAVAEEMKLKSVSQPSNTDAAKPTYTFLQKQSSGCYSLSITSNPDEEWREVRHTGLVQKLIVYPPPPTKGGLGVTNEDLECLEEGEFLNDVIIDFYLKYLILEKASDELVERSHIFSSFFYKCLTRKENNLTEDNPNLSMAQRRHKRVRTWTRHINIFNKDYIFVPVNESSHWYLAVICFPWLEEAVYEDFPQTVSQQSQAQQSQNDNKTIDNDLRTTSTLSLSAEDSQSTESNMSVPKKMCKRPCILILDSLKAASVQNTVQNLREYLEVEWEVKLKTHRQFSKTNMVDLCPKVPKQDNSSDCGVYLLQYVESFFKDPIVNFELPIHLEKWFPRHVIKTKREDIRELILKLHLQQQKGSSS", "assay_type": "functional"}, "[9]": {"molecular_target": "T4, Sentrin-specific protease 8 (Homo sapiens, UniProt Q96LD8)", "T4 sequence (Q96LD8 whole entry)": "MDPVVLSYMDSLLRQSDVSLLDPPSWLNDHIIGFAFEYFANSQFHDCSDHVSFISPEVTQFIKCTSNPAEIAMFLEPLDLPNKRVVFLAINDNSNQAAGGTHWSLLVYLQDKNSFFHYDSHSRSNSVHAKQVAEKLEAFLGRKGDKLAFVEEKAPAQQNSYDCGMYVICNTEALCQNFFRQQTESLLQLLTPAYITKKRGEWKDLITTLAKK", "assay_type": "functional"}, "HEK293 [10]": {"system": "HEK293", "assay": "cells", "assay_type": "functional, cell-based", "conditions": "Homo sapiens", "remark": "listed apart in the source"}, "[11]": {"assay": "microbe, parasite or virus in culture", "assay_type": "functional", "conditions": "Mycobacterium tuberculosis"}, "HEK293 [12]": {"system": "HEK293", "assay": "NOD1 signaling inhibitors, primary screen, cell-based, luminescence, uHTS (AID 1578)", "assay_type": "functional", "conditions": "Homo sapiens"}, "HEK293 [13]": {"system": "HEK293", "assay": "cells", "assay_type": "functional, cell-based", "conditions": "Homo sapiens", "remark": "listed apart in the source"}, "[14]": {"molecular_target": "T5, Sentrin-specific protease 6 (Homo sapiens, UniProt Q9GZR1)", "T5 sequence (Q9GZR1 whole entry)": "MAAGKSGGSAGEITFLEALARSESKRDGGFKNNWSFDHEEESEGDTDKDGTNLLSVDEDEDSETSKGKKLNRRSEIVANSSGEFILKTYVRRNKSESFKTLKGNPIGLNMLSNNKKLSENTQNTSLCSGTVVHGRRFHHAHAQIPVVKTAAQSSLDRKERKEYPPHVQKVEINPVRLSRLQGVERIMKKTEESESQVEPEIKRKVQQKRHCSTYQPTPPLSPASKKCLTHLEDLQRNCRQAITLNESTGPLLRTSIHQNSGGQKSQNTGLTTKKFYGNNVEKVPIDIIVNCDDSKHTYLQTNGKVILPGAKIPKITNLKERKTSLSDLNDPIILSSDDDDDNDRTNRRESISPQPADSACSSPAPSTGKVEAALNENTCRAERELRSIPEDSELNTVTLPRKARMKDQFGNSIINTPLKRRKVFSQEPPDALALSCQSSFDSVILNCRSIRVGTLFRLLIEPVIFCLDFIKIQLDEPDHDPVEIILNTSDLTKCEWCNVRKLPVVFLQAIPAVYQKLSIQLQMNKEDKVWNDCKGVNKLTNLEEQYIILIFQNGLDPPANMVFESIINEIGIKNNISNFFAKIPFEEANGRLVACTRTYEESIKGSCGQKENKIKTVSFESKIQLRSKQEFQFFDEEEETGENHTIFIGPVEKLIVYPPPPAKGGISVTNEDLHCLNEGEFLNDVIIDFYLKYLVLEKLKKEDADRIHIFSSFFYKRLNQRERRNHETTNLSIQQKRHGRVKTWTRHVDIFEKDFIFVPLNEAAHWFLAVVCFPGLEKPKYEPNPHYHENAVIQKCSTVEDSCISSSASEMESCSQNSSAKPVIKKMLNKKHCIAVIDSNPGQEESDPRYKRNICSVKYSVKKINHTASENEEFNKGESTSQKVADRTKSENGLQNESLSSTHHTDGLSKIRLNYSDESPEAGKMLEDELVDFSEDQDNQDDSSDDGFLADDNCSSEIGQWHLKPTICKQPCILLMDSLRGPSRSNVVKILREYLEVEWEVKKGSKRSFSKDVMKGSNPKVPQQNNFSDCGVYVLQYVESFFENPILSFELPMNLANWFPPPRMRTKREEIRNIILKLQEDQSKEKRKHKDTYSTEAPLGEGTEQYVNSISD", "assay_type": "functional"}, "HEK293 [15]": {"system": "HEK293", "assay": "NOD2 signaling inhibitors in MDP-stimulated cells, cell-based, uHTS, luminescence (AID 2001)", "assay_type": "functional", "conditions": "Homo sapiens"}, "[16]": {"assay": "inhibitors of fibronectin matrix deposition, dose response, AH1F cells, Alexa488-FN fluorescence, cherry-picks (AID 1035475)", "assay_type": "functional, cell-based"}, "[17]": {"assay": "Late stage assay provider results from the probe development effort to identify selective inhibitors of heat shock protein 90 (HSP90): Absorbance-based cell proliferation assay in MCF7 cells.", "assay_type": "functional"}, "[18]": {"assay": "Late stage assay provider results from the probe development effort to identify selective inhibitors of heat shock protein 90 (HSP90): Absorbance-based cell proliferation assay in SKBR3 cells.", "assay_type": "functional", "conditions": "SK-BR-3"}}, "note": "Calls of active or inactive are those of the source."}
{"molecule": "CCCN(CC(=O)Nc1cc(Cl)cc(Cl)c1)CC(=O)Nc1ccc(F)c(F)c1F", "values": [{"measurement": "EC50", "setting": "Streptokinase A", "value": "1.48 µM (active)"}, {"measurement": "EC50", "setting": "[1]", "value": "1.77 µM (active)"}, {"measurement": "IC50", "setting": "[2]", "value": "> 69.5 µM (inactive)"}, {"measurement": "EC50", "setting": "Streptococcus", "value": "10.4 µM (active)"}]}
{"molecule": "CSC1=NS(=O)(=O)c2c(C)nn(C)c2S1", "values": [{"measurement": "AC50", "setting": "[3]", "value": "18.7 µM (active)"}, {"measurement": "IC50", "setting": "Large T antigen", "value": "32.8 µM (active)"}, {"measurement": "IC50", "setting": "[4]", "value": "10.7 µM (active)"}]}
{"molecule": "CCOc1cccc(/C=C/c2ccc3cccc(O)c3n2)c1O", "values": [{"measurement": "IC50", "setting": "HEK293 [5]", "value": "> 20 µM (inactive)"}, {"measurement": "EC50", "setting": "[6]", "value": "> 20 µM (inactive)"}, {"measurement": "AC50", "setting": "[7]", "value": "26 µM (active)"}, {"measurement": "IC50", "setting": "[8]", "value": "4.32 µM (active)"}, {"measurement": "IC50", "setting": "[9]", "value": "> 100 µM (inactive)"}, {"measurement": "IC50", "setting": "HEK293 [10]", "value": "11.5 µM (active)"}, {"measurement": "CC50", "setting": "[11]", "value": "35.7 µM (active)"}, {"measurement": "EC50", "setting": "HEK293 [12]", "value": "> 20 µM (inactive)"}, {"measurement": "IC50", "setting": "HEK293 [13]", "value": "> 20 µM (inactive)"}, {"measurement": "IC50", "setting": "[14]", "value": "7.66 µM (active)"}, {"measurement": "IC50", "setting": "HEK293 [15]", "value": "3.71 µM (inactive)"}]}
{"molecule": "C[C@@H]1CN([C@H](C)CO)C(=O)c2cccc(NC(=O)Nc3ccc(C(F)(F)F)cc3)c2O[C@H]1CN(C)C(=O)Nc1cccc2ccccc12", "values": [{"measurement": "AC50", "setting": "[16]", "value": "57.7 µM (active)"}]}
{"molecule": "O=C(O)CCCCOc1ccc2cc(Br)c(=O)oc2c1", "values": [{"measurement": "IC50", "setting": "[17]", "value": "> 100 µM (inactive)"}, {"measurement": "IC50", "setting": "[18]", "value": "> 100 µM (inactive)"}]}
